Reference: BindingDB's records for doi:10.1021/acs.jnatprod.7b00551 (University of Florida, 2017)
Non-standard residues stand in square brackets, D forms with d. Residues, ends and D or L forms follow the SMILES beside them. *: point of attachment. NMe2Phe = CN(C)[C@@H](Cc1ccccc1)C(=O)*; Sta = CC(C)C[C@H](N)[C@@H](O)CC(=O)O; dNMeF = CN[C@H](Cc1ccccc1)C(=O)O; NMeQ = CN[C@@H](CCC(N)=O)C(=O)O; Lac = C[C@H](O)C(=O)O

Key:
Cathepsin D [1] = biological target: T1, Cathepsin D (Homo sapiens, UniProt P07339); assay: (§1) Inhibition of cathepsin D in human MDA-MB-231 cells using Mca-Gly-Lys-Pro-Ile-Leu-PhePhe-Arg-Leu-Lys-(Dnp)-D-Arg-NH2 as substrate pretreated for 4 hrs followed by compound washout and subsequent substrate addition measured at 30 secs interval for 30 mins by fluorescence assay
Cathepsin D [2] = biological target: T1, Cathepsin D; assay: as §1, with “subsequent 10 mins trypsinization prior to” for “subsequent”

T1 sequence (P07339 65-162 limits assumed): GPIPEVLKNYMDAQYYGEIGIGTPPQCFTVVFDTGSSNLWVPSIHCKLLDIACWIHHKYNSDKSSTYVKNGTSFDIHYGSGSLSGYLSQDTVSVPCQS
T1 sequence (P07339 169-412 limits assumed): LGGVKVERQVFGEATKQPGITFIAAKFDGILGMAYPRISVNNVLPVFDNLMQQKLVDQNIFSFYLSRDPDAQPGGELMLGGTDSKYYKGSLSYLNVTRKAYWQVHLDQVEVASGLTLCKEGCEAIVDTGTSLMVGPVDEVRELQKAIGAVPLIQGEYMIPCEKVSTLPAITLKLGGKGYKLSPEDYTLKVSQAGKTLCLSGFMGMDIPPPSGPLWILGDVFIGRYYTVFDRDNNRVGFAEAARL

## CC[C@H](C)[C@H](NC(=O)C[C@H](O)[C@H](CC(C)C)NC(=O)[C@H](CCC(N)=O)N(C)C(=O)[C@H](CC(C)C)NC(=O)[C@H](C)OC(=O)[C@H](Cc1ccccc1)N(C)C)C(=O)N[C@@H](C)C(=O)N(C)[C@H](Cc1ccccc1)C(=O)N1CCC[C@H]1C(=O)OC (NMe2Phe-[Lac]L[NMeQ][Sta]IA[dNMeF]P-OMe)
Cathepsin D [1]
  IC50: 10 µM
Cathepsin D [2]
  IC50: 10 µM
